This is an account of results in patent publication US20120149700A1, “2-CYANOPHENYL FUSED HETEROCYCLIC COMPOUNDS, AND COMPOSTIONS AND USES THEREOF” (priority 2007, published 2012).

In one experiment the target is T1, P2X3 (Homo sapiens, UniProt P56373).
T1 construct: expressed in transfected cells; host or cells: e.g. HEK293 or 1321N1
T1 sequence (P56373 1-397): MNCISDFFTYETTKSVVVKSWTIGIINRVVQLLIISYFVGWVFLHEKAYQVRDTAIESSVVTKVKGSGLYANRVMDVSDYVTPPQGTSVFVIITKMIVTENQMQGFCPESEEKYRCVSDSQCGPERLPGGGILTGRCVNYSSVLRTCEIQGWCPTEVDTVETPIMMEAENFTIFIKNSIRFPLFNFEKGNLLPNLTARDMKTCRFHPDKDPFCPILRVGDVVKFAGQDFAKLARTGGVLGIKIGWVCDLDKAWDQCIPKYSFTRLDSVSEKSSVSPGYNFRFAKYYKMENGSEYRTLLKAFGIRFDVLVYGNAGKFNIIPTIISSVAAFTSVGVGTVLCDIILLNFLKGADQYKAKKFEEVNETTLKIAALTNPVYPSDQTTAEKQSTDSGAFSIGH
Put plainly: Calcium uptake assay (P2X antagonist assay, inhibition of agonist-induced calcium influx), P2X3. The class given is cell-based. Conditions: inhibition of agonist-induced calcium influx in cells expressing the receptor. An excerpt: (§1) The human P2X2/3 chimera clone is created as described by Neelands et al, and then cloned into an expression vector as above. Receptors are expressed in cells (e.g., HEK293 or 1321N1 (obtained from the ECACC)) via transient transfection using standard lipid mediated transfection, or by creation of stable transfectants for each receptor. For expression of the P2X2/3 heteromeric receptor, the P2X3 expression vector is stably transfected into a cell line already stably expressing P2X2. P2X2/3 heteromer function is isolated using pharmacological methods. Cell lines are maintained in DMEM+5% Glutamax, the appropriate level of selective antibiotic, and 10% heat inactivated FBS.
(§2) Functional activity of compounds at the P2X receptor is determined by measuring their ability to inhibit agonist-induced calcium influx. Compounds are tested for antagonist activity against the P2X2/3 chimera, the P2X3 homomer, or the P2X2/3 heteromer. At the start of each screening day, the agonist EC50 is determined. Compound % inhibition or IC50s are subsequently determined using a pre-determined agonist concentration (EC50-90 depending on cell line) as a stimulus. The agonists used are αβMeATP, ATP, or other ATP analogs. Compounds may be tested at concentrations ranging from 1 pM to 10 μM.
(§3) To test for antagonist activity, cells expressing the appropriate receptor are seeded onto 96 or 384 well plates 18-24 hours prior to assay. […] Plates are incubated at 37° C. and then equilibrated at room temperature. Antagonism of agonist-induced calcium influx is measured using a fluorescent imaging plate reader (e.g. FLIPR^TETRA, Molecular Devices, Sunnyvale, Calif.). The assay comprises two stages: a pre-treatment phase followed by a treatment phase. Compounds may be tested as follows: For the pre-treatment phase, 50 μL of 3× concentration of test compound in HBSS is added to cells containing 100 μL of dye loading media to achieve a final concentration of 1× test compound. For the treatment phase, at a set interval after pre-treatment (1-30 minutes), 50 μl, of 1× test compound plus 4× agonist solution is added, resulting in a final concentration of 1× compound and 1× agonist. […] Responses are measured as (peak fluorescence after agonist addition) minus (baseline fluorescence prior to treatment). Percent inhibition is calculated as follows: […]
(§4) IC50 values are determined by analyzing dose response data in a 4 parameter logistic fit using GraphPad Prizm.

For the next experiment, the target named is T2, P2X2/3 (Homo sapiens, UniProt P56373+Q9UBL9).
T2 construct: expressed in transfected cells; host or cells: cell line stably expressing P2X2, stably transfected with P2X3 (e.g. HEK293 or 1321N1)
T2 sequence (Q9UBL9 1-471): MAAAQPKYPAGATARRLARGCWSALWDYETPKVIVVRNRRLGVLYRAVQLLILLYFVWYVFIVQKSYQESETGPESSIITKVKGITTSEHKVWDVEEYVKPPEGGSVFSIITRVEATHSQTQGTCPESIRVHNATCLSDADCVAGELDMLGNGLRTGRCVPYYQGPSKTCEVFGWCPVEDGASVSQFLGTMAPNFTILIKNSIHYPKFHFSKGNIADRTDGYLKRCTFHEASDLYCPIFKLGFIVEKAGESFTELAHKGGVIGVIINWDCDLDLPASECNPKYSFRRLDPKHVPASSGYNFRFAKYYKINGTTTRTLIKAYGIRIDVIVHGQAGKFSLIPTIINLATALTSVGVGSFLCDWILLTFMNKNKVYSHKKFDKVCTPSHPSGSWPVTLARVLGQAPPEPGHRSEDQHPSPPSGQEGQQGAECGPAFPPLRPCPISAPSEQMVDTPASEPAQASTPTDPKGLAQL
T2 sequence (P56373 1-397): T1 sequence (P56373 1-397)
Put plainly: Calcium uptake assay (P2X antagonist assay, inhibition of agonist-induced calcium influx), P2X2/3. The class given is cell-based. The conditions noted are these: inhibition of agonist-induced calcium influx in cells expressing the receptor.
Source text: as §1, §2, §3, §4

By pIC50 is commonly meant the IC50 on a negative log10 scale, so that one unit is a factor of ten.

Structures are written as SMILES. pIC50: −log10 of the molar value.

As for `Cc1ccc(N2CCc3ncnc(NCc4ncc(Cl)cc4Cl)c3C2)c(C#N)c1` [Compound 32, 2-{-4-[(3,5-Dichloro-pyridin-2-ylmethyl)-amino]-7,8-dihydro-5H-pyrido[4,3-d]pyrimidin-6-yl}-5-methyl-benzonitrile], the pIC50 at P2X3 is 7.39; on P2X2/3 it was 7.30.

For `N#Cc1cc(Cl)ccc1N1CCc2ncnc(N[C@H](CCO)c3ccc(C(F)F)nc3)c2C1` [Compound 62, 5-Chloro-2-{4-[(R)-1-(6-difluoromethyl-pyridin-3-yl)-3-hydroxy-propylamino]-7,8-dihydro-5H-pyrido[4,3-d]pyrimidin-6-yl}-benzonitrile], the pIC50 on P2X3 was 7.49; at P2X2/3, 6.56.

For the compound `N#Cc1cc(Cl)ccc1N1CCc2ncnc(NCc3ccc(Cl)c(-n4cnnc4)c3)c2C1` [Compound 52, 5-Chloro-2-[4-(4-chloro-3-[1,2,4]triazol-4-yl-benzylamino)-7,8-dihydro-5H-pyrido[4,3-d]pyrimidin-6-yl]-benzonitrile], the results for the pIC50 on P2X3 and at P2X2/3 were 7.39 and 6.54, respectively.

In the case of `Cc1ccc(CNc2ncnc3c2CN(c2ccc(Cl)cc2C#N)CC3)cc1S(C)(=O)=O` [Compound 76, 5-Chloro-2-[4-(3-methanesulfonyl-4-methyl-benzylamino)-7,8-dihydro-5H-pyrido[4,3-d]pyrimidin-6-yl]-benzonitrile], the values for the pIC50 on P2X3 and on P2X2/3 were 7.40 and 6.62, respectively.

`N#Cc1cc(Br)ccc1N1CCc2ncnc(NCc3ccc(C(F)(F)F)nc3)c2C1` [Compound 2, 5-Bromo-2-{4-[(6-trifluoromethyl-pyridin-3-ylmethyl)-amino]-7,8-dihydro-5H-pyrido[4,3-d]pyrimidin-6-yl}-benzonitrile]: the pIC50 on P2X3 was 7.10.

`N#Cc1cc(Cl)ccc1N1CCc2ncnc(N[C@H](CCO)c3ccc(C(F)(F)F)nc3)c2C1` [Compound 20, 5-Chloro-2-{4-[(R)-3-hydroxy-1-(6-trifluoromethyl-pyridin-3-yl)-propylamino]-7,8-dihydro-5H-pyrido[4,3-d]pyrimidin-6-yl}-benzonitrile]: the pIC50 on P2X3 was 7.05; at P2X2/3, 6.04.

With `Cc1ccc(N2CCc3ncnc(NCc4ccc(Cl)cn4)c3C2)c(C#N)c1` [Compound 28, 2-{-4-[(5-Chloro-pyridin-2-ylmethyl)-amino]-7,8-dihydro-5,1-pyrido[4,3-d]pyrimidin-6-yl}-5-methyl-benzonitrile], the values for the pIC50 at P2X3 and on P2X2/3 were 7.54 and 6.82, respectively.

For `Cc1nc(C(F)(F)F)ccc1CNc1ncnc2c1CN(c1ccc(Cl)cc1C#N)CC2` [Compound 11, 5-Chloro-2-(4-((2-methyl-6-(trifluoromethyl)pyridin-3-yl)methylamino)-7,8-dihydropyrido[4,3-d]pyrimidin-6(5H)-yl)benzonitrile], the pIC50 is 6.73 on P2X3 and less than 5.00 at P2X2/3.

For `N#Cc1cc(Cl)ccc1N1CCc2ncnc(N[C@H](CO)c3ccc(C(F)F)nc3)c2C1` [Compound 72, 5-Chloro-2-[4-[(S)-1-(6-difluoromethyl-pyridin-3-yl)-2-hydroxy-ethylamino]-7,8-dihydro-5H-pyrido[4,3-d]pyrimidin-6-yl]-benzonitrile], the negative-log IC50 (pIC50) on P2X3 was 7.80; at P2X2/3 it was 6.39.

For `Cc1ccc(N2CCc3ncnc(NCc4ccc5cc[nH]c5c4)c3C2)c(C#N)c1` [Compound 81, 2-(4-((1H-Indol-6-yl)methylamino)-7,8-dihydropyrido[4,3-d]pyrimidin-6(5H)-yl)-5-methylbenzonitrile], the pIC50 is 6.37 at P2X3 and 5.66 on P2X2/3.

For `Cc1ccc(N2CCc3ncnc(NCc4ccc5c(c4)OCO5)c3C2)c(C#N)c1` [Compound 82, 2-(4-(Benzo[d][1,3]dioxol-5-ylmethylamino)-7,8-dihydropyrido[4,3-d]pyrimidin-6(5H)-yl)-5-methylbenzonitrile], the negative logarithm of the IC50 (pIC50) at P2X3 is 7.25; at P2X2/3, 6.51.

For `Cc1ccc(N2CCc3ncnc(NCc4ccc(C(F)(F)F)nc4)c3C2)c(C#N)c1` [Compound 1, 5-Methyl-2-{4-[(6-trifluoromethyl-pyridin-3-ylmethyl)-amino]-7,8-dihydro-5H-pyrido[4,3-d]pyrimidin-6-yl}-benzonitrile], the pIC50 at P2X3 is 7.72; at P2X2/3, 7.04.

In the case of `N#Cc1cc(C2CC2)ccc1N1CCc2ncnc(NCc3ccc(C(F)(F)F)nc3)c2C1` [Compound 3, 5-Cyclopropyl-2-{4-[(6-trifluoromethyl-pyridin-3-ylmethyl)-amino]-7,8-dihydro-5H-pyrido[4,3-d]pyrimidin-6-yl}-benzonitrile], the pIC50 on P2X3 is 6.06.

Turning to `Cc1ccc(N2CCc3ncnc(NCc4ccc(Cl)nc4)c3C2)c(C#N)c1` [Compound 27, 2-{4-[(6-Chloro-pyridin-3-ylmethyl)-amino]-7,8-dihydro-5H-pyrido[4,3-d]pyrimidin-6-yl}-5-methyl-benzonitrile], the pIC50 is 7.96 on P2X3 and 7.60 on P2X2/3.

With `Cc1ccc(N2CCc3ncnc(N[C@H](CO)c4ccc(C(F)(F)F)nc4)c3C2)c(C#N)c1` [Compound 46, 2-{4-[(S)-2-Hydroxy-1-(6-trifluoromethyl-pyridin-3-yl)-ethylamino]-7,8-dihydro-5H-pyrido[4,3-d]pyrimidin-6-yl}-5-methyl-benzonitrile], the pIC50 at P2X3 was 7.68; at P2X2/3 it was 7.15.

`CC(=O)OCC[C@@H](Nc1ncnc2c1CN(c1ccc(C)cc1C#N)CC2)c1ccc(C(F)(F)F)nc1` [Compound 77, Acetic acid (R)-3-[6-(2-cyano-4-methyl-phenyl)-5,6,7,8-tetrahydro-pyrido[4,3-d]pyrimidin-4-ylamino]-3-(6-trifluoromethyl-pyridin-3-yl)-propyl ester]: the pIC50 at P2X3 is 6.89; on P2X2/3, 6.27.

Consider `N#Cc1cc(Cl)ccc1N1CCc2ncnc(N[C@H](CO)c3ccc(C(F)(F)F)nc3)c2C1` [Compound 47, 5-Chloro-2-{4-[(S)-2-hydroxy-1-(6-trifluoromethyl-pyridin-3-yl)-ethylamino]-7,8-dihydro-5H-pyrido[4,3-d]pyrimidin-6-yl}-benzonitrile], for which the pIC50 at P2X3 is 7.27; on P2X2/3 it was 6.17.

Take `Cc1ccc(N2CCc3ncnc(NCc4ccc(C)c(F)c4)c3C2)c(C#N)c1` [Compound 48, 2-[4-(3-Fluoro-4-methyl-benzylamino)-7,8-dihydro-5H-pyrido[4,3-d]pyrimidin-6-yl]-5-methyl-benzonitrile]: the pIC50 at P2X3 is 7.05; on P2X2/3 it was 6.91.

Regarding `N#Cc1cc(Cl)ccc1N1CCc2ncnc(NCc3ccc(C(F)(F)F)nc3)c2C1` [Compound 4, 5-Chloro-2-{4-[(6-trifluoromethyl-pyridin-3-ylmethyl)-amino]-7,8-dihydro-5H-pyrido[4,3-d]pyrimidin-6-yl}-benzonitrile], the pIC50 at P2X3 is 7.43; at P2X2/3, 6.07.

Consider `N#Cc1cc(C(F)(F)F)ccc1N1CCc2ncnc(NCc3ccc(C(F)(F)F)nc3)c2C1` [Compound 5, 5-Trifluoromethyl-2-{4-[(6-trifluoromethyl-pyridin-3-ylmethyl)-amino]-7,8-dihydro-5H-pyrido[4,3-d]pyrimidin-6-yl}-benzonitrile], for which, on P2X3, the pIC50 was 5.74.
